Results published in patent US8378104B2 (OSI Pharmaceuticals, LLC, priority 2010, dated 2013).
pIC50: −log10 of the molar value. Counter-ions that a name gives are not always drawn.

How the values were obtained:
TAK1-TAB1 fusion protein = target: T1, TAK1-TAB1 fusion protein (Homo sapiens, UniProt O43318); experiment: TAK1 biochemical assay (AlphaScreen, GST-MAP2K7 substrate); settings: TAK1-TAB1 fusion protein, GST-MAP2K7 substrate; read-out: mean TAK1 IC50 (Col. A)
T1 construct: purchased Carna
T1 sequence (O43318 with tags, fused parts or gaps limits assumed): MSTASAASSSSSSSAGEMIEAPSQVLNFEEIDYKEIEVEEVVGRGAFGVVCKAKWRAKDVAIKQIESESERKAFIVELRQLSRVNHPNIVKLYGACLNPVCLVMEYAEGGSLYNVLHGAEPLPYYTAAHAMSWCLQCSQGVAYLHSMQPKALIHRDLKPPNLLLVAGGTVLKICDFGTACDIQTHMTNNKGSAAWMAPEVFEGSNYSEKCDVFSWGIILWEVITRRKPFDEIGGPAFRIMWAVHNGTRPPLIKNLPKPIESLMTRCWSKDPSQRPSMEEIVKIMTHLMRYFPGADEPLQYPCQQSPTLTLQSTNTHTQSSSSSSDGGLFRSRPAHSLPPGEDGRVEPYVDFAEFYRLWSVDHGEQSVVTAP

pJNK in HCT-116 cells = experiment: Phospho-JNK (Thr183/Tyr185) Meso Scale ELISA assay, TNFα-stimulated HCT-116 cells; type: cell-based; settings: Homo sapiens, read-out: mean HCT-116 pJNK ELISA IC50 (Col. B)
Procedure: Detailed below are ELISA assays for pJNK and p38, and a TAK1 biochemical assay. […] In Table 1, Col.
Phospho-JNK (Thr183/Tyr185) Meso Scale ELISA Assay
• 1. Plate HCT-116 cells at 25,000 per well in 100 uL in 96 well clear dishes in normal growth medium. Day 2: • 1. Aspirate medium and replace with 90 μl reduced serum growth medium (1% FCS), incubate for 2 hours at 37° C. • 2. Make drugs at 10× in reduced serum medium and add 10 uL per well. • 3. Incubate at 37° C. for 4 hrs. • 4. Bring capture plates to room temperature. • 5. Block with 150 μl Blocking Solution (provided with kit) (600 mg Blocker A into 20 mL 1× Wash Buffer per plate) at room temperature with shaking. • 6. Wash plates 4× with 200 μl 1× wash buffer (10× provided with kit) before transferring lysates. • 7. Dilute TNFα to […] in reduced serum medium (this makes a 10× working stock). • 8. Add 10 μl TNFα to all wells except negative control wells, final concentration is 10 ng/mL. • 9. Incubate at 37° C. for 10 minutes. • 10. Remove medium by flicking into sink • 11. Wash cells with 100 uL ice cold PBS. • 12. Remove PBS by flicking into sink and patting on paper towels. • 13. Lyse cells in 50 μl ice cold 1× Complete Lysis Buffer plus Phosphatase and Protease inhibitors (all provided with kit) (10 mL Tris Lysis Buffer+200 μl Protease inhibitor solution+100 μl Phosphatase inhibitor I+100 μl Phosphatase inhibitor II). • 14. Incubate with shaking at 4° C. for 30 minutes. • 15. Transfer 45 μl to capture plate, cover with adhesive cover, and incubate at 4° C. over night with shaking. • Day 3: • 1. Wash plates 4× with 200 μl 1× wash buffer (10× provided with kit). • 2. […] Incubate at room temperature with shaking for 1 hour. • 4. Wash 4× with 200 μl 1× Wash Buffer. • 5. […] Read on Sector Imager. Phospho-p38 Meso Scale ELISA Assay Day 1: • 1. Plate HCT-116 cells at 25,000 per well in 100 uL in 96 well clear dishes in normal growth medium. zday 2: • 1. Aspirate medium and replace with 90 μl reduced serum growth medium (1% FCS), incubate for 2 hours at 37° C. • 2. Make drugs at 10× in reduced serum medium and add 10 uL per well. • 3. Incubate at 37° C. for 4 hrs. • 4. Bring capture plates to room temperature. • 5. Block with 150 μl Blocking Solution (provided with kit) (600 mg Blocker A into 20 mL 1× Wash Buffer per plate) at room temperature with shaking. • 6. Wash plates 4× with 200 μl 1× wash buffer (10× provided with kit) before transferring lysates. • 7. Dilute TNFα to […] in reduced serum medium (this makes a 10× working stock). • 8. Add 10 μl TNFα to all wells except negative control wells, final concentration is 10 ng/mL. • 9. Incubate at 37° C. for 10 minutes. • 10. Remove medium by flicking into sink • 11. Wash cells with 100 uL ice cold PBS. • 12. Remove PBS by flicking into sink and patting on paper towels. • 13. Lyse cells in 50 μl ice cold 1× Complete Lysis Buffer plus phosphatase and protease inhibitors (all provided with kit) (10 mL Tris Lysis Buffer+200 μl Protease inhibitor solution+100 μl Phosphatase inhibitor I+100 μl Phosphatase inhibitor II). • 14. Incubate with shaking at 4° C. for 30 minutes. • 15. Dilute lysates before transferring to capture plate with 100 μl Complete p38 Lysate • Dilution Buffer (provided with kit) (10 mL of Diluent 20±200 μl Protease inhibitor solution+100 μl Phosphatase inhibitor I+100 μl Phosphatase inhibitor II). • 16. Transfer 50 μl of diluted lysates to capture plate, cover with adhesive cover, and incubate at 4° C. over night with shaking. Day 3: • 1. Wash plates 4× with 200 μl 1× wash buffer (10× provided with kit). • 2. […] Incubate at room temperature with shaking for 1 hour. • 4. Wash 4× with 200 μl 1× Wash Buffer. • 5. […] Read on Sector Imager. TAK1 Biochemical Assay

Structure (SMILES)	pIC50 (TAK1-TAB1 fusion protein)	pIC50 (pJNK in HCT-116 cells)
Nc1ncc(-c2cnn([C@H]3CC[C@H](O)CC3)c2)c2cc(-c3cccn4cncc34)oc12 [Example 365, trans-4-{4-[7-amino-2-(imidazo[1,5-a]pyridin-8-yl)furo[2,3-c]pyridin-4-yl]-1H-pyrazol-1-yl}cyclohexanol.diformate]	> 7.00	> 7.00
CC(=O)N1CCC(n2cc(-c3cnc(N)c4oc(-c5csc6cnc(O)cc56)cc34)cn2)CC1 [Example 251, 1-(4-{4-[7-amino-2-(5-hydroxythieno[2,3-c]pyridin-3-yl)furo[2,3-c]pyridin-4-yl]-1H-pyrazol-1-yl}piperidin-1-yl)ethanone bis(trifluoroacetate)]	6.00 to 7.00	5.00 to 6.00
CC(=O)N1CCC(n2cc(-c3cnc(N)c4oc(-c5csc6cnc(Cl)cc56)cc34)cn2)CC1 [Example 246, 1-(4-{4-[7-amino-2-(5-chlorothieno[2,3-c]pyridin-3-yl)furo[2,3-c]pyridin-4-yl]-1H-pyrazol-1-yl}piperidin-1-yl)ethanone bis(trifluoroacetate)]	6.00 to 7.00	6.00 to 7.00
CNc1ncc(-c2cnn([C@H]3CC[C@H](O)CC3)c2)c2cc(-c3cccc4cnsc34)oc12 [Example 282, trans-4-{4-[2-(1,2-benzothiazol-7-yl)-7-(methylamino)furo[2,3-c]pyridin-4-yl]-1H-pyrazol-1-yl}cyclohexanol]	6.00 to 7.00	6.00 to 7.00
CN(C)C(=O)CCn1cc(-c2cnc(N)c3oc(-c4csc5cnccc45)cc23)cn1 [Example 346, 3-[4-(7-amino-2-thieno[2,3-c]pyridin-3-yl-furo[2,3-c]pyridin-4-yl)-pyrazol-1-yl]-N,N-dimethyl-propionamide]	6.00 to 7.00	5.00 to 6.00
CC(=O)N1CCC(n2cc(-c3cnc(N)c4oc(-c5csc6cnc(F)cc56)cc34)cn2)CC1 [Example 248, 1-(4-{4-[7-amino-2-(5-fluorothieno[2,3-c]pyridin-3-yl)furo[2,3-c]pyridin-4-yl]-1H-pyrazol-1-yl}piperidin-1-yl)ethanone bis(trifluoroacetate)]	> 7.00	> 7.00
CNc1ncc(-c2cnn([C@H]3CC[C@H](O)CC3)c2)c2cc(-c3cccc4nnsc34)oc12 [Example 284, trans-4-{4-{2-[2-(1,2,3-benzothiadiazol-7-yl)-7-(methylamino)furo[2,3-c]pyridin-4-yl]-1H-pyrazol-1-yl}cyclohexanol formate salt]	> 7.00	> 7.00
CNc1ncc(-c2cnn([C@H]3CC[C@H](O)CC3)c2)c2cc(-c3csc4cnc(F)cc34)oc12 [Example 283, trans-4-{4-[2-(5-fluorothieno[2,3-c]pyridin-3-yl)-7-(methylamino)furo[2,3-c]pyridin-4-yl]-1H-pyrazol-1-yl}cyclohexanol]	> 7.00	> 7.00
[2H]C([2H])([2H])Nc1ncc(-c2cnn([C@H]3CC[C@H](O)CC3)c2)c2cc(-c3cccc4nnsc34)oc12 [Example 361, trans-4-(4-{2-(1,2,3-benzothiadiazol-7-yl)-7-[(^2H3)methylamino]furo[2,3-c]pyridin-4-yl}-1H-pyrazol-1-yl)cyclohexanol]	> 7.00	> 7.00
Cc1cc(-c2cc3c(-c4cnn([C@H]5CC[C@H](O)CC5)c4)cnc(N)c3o2)c2snnc2c1 [Example 373, trans-4-{4-[7-amino-2-(5-methyl-1,2,3-benzothiadiazol-7-yl)furo[2,3-c]pyridin-4-yl]-1H-pyrazol-1-yl}cyclohexanol]	> 7.00	> 7.00
Nc1ncc(-c2cnn([C@H]3CC[C@H](O)CC3)c2)c2cc(-c3csc4cnc(Cl)cc34)oc12 [Example 247, trans-4-{4-[7-amino-2-(5-chlorothieno[2,3-c]pyridin-3-yl)furo[2,3-c]pyridin-4-yl]-1H-pyrazol-1-yl}cyclohexanol bis(trifluoroacetate)]	6.00 to 7.00	6.00 to 7.00
CC(=O)N1CCC(n2cc(-c3cnc(N)c4oc(-c5c6ccncc6nn5C)cc34)cn2)CC1 [Example 364, 1-(4-{4-[7-amino-2-(2-methyl-2H-pyrazolo[3,4-c]pyridin-3-yl)furo[2,3-c]pyridin-4-yl]-1H-pyrazol-1-yl}piperidin-1-yl)ethanone trifluoroacetic Acid Salt]	6.00 to 7.00	5.00 to 6.00
N#Cc1cc(-c2cc3c(-c4cnn([C@H]5CC[C@H](O)CC5)c4)cnc(N)c3o2)c2snnc2c1 [Example 370, 7-{7-amino-4-[1-(trans-4-hydroxycyclohexyl)-1H-pyrazol-4-yl]furo[2,3-c]pyridin-2-yl}-1,2,3-benzothiadiazole-5-carbonitrile]	6.00 to 7.00	> 7.00
Nc1ncc(-c2cnn([C@H]3CC[C@H](O)CC3)c2)c2cc(-c3cccc4sncc34)oc12 [Example 242, trans-4-{4-[7-amino-2-(1,2-benzothiazol-4-yl)furo[2,3-c]pyridin-4-yl]-1H-pyrazol-1-yl}cyclohexanol Diformate Salt]	> 7.00	> 7.00
CC(=O)N1CCC(n2cc(-c3cnc(N)c4oc(-c5cc(F)cc6cnsc56)cc34)cn2)CC1 [Example 237, 1-(4-{4-[7-amino-2-(5-fluoro-1,2-benzothiazol-7-yl)furo[2,3-c]pyridin-4-yl]-1H-pyrazol-1-yl}piperidin-1-yl)ethanone diformate salt]	> 7.00	> 7.00
CC(=O)N1CCC(n2cc(-c3cnc(N)c4oc(-c5c(F)ccc6nnsc56)cc34)cn2)CC1 [Example 273, 1-(4-{4-[7-amino-2-(6-fluoro-1,2,3-benzothiadiazol-7-yl)furo[2,3-c]pyridin-4-yl]-1H-pyrazol-1-yl}piperidin-1-yl)ethanone]	> 7.00	6.00 to 7.00
Nc1ncc(-c2cnn([C@H]3CC[C@H](O)CC3)c2)c2c(Cl)c(-c3cccc4cnsc34)oc12 [Example 285, trans-4-{4-[7-amino-2-(1,2-benzothiazol-7-yl)-3-chlorofuro[2,3-c]pyridin-4-yl]-1H-pyrazol-1-yl}cyclohexanol trifluoroacetic Acid Salt]	6.00 to 7.00	6.00 to 7.00
Cc1ncc(-c2cnc(N)c3oc(-c4csc5cnccc45)cc23)s1 [Example 388, 4-(2-methyl-1,3-thiazol-5-yl)-2-(thieno[2,3-c]pyridin-3-yl)furo[2,3-c]pyridin-7-amine trifluoroacetate]	6.00 to 7.00	6.00 to 7.00
Cc1c(-c2cccc3nnsc23)oc2c(N)ncc(-c3cnn([C@H]4CC[C@H](O)CC4)c3)c12 [Example 362, trans-4-{4-[7-amino-2-(1,2,3-benzothiadiazol-7-yl)-3-methylfuro[2,3-c]pyridin-4-yl]-1H-pyrazol-1-yl}cyclohexanol]	> 7.00	> 7.00
